Reference: patent US20230263822A1, “MODULATION OF FACTOR 11 EXPRESSION” (Ionis Pharmaceuticals, Inc., priority 2008, published 2023)

Key:
human Factor 11 mRNA [1] = assay: Dose-dependent inhibition of human Factor 11 in HepG2 cells, lipofectin 2.34-75 nM (Example 5); assay type: cell-based; conditions: for percent inhibition of human Factor 11 mRNA relative to untreated control cells: ~16 hours
Protocol: Cells were plated at a density of 10,000 cells per well and transfected using lipofectin reagent with 2.34 nM, 4.69 nM, 9.375 nM, 18.75 nM, 37.5 nM, and 75 nM concentrations of antisense oligonucleotide, as specified in Table 11. After a treatment period of approximately 16 hours, RNA was isolated from the cells and human Factor 11 mRNA levels were measured by quantitative real-time PCR. Human Factor 11 primer probe set RTS 2966 was used to measure mRNA levels. Factor 11 mRNA levels were adjusted according to total RNA content, as measured by RIBOGREEN. Results are presented as percent inhibition of human Factor 11, relative to untreated control cells.

[2] = set-up: species or system Sprague-Dawley rats; conditions: rat, in vivo
Protocol: Three days after the last dose, the rats were sacrificed and livers and kidneys were collected for analysis.
The concentration of the full-length oligonucleotide as well as the total oligonucleotide concentration (including the degraded form) was measured. The method used is a modification of previously published methods (Leeds et al., 1996; Geary et al., 1999) which consist of a phenol-chloroform (liquid-liquid) extraction followed by a solid phase extraction. An internal standard (ISIS 355868, a 27-mer 2′-O-methoxyethyl modified phosphorothioate oligonucleotide, […], designated herein as SEQ ID NO: 270) was added prior to extraction. […] The results are presented in Tables 77 and 78, expressed as μg/g liver or kidney tissue. Half-lives were then calculated using WinNonlin software ([…]).

human Factor 11 mRNA [3] = assay: Dose-dependent inhibition of human Factor 11 in HepG2 cells, lipofectin 9.375-75 nM (Example 4); assay type: cell-based; conditions: for percent inhibition of Factor 11 at 9.375 nM / percent inhibition of Factor 11 at 18.75 nM / percent inhibition of Factor 11 at 37.5 nM / percent inhibition of Factor 11 at 75 nM: relative to untreated control cells
In short: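 HepG2 cells transfected via lipofectin with antisense oligonucleotide at 9.375, 18.75, 37.5 or 75 nM for about 16 h. Factor 11 mRNA quantified by real-time RT-PCR (primer probe set RTS 2966) and normalized to total RNA (RIBOGREEN). Results expressed as percent inhibition versus untreated cells.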

For “417002 (antisense GGTGCACAGTTTCTGGCAGG; 2-13-5 gapmer chemistry, further chemistry not given here) [compound 417002]”, the IC50 (human Factor 11 mRNA [1]) was 0.012 µM, the “percent inhibition of human Factor 11 mRNA relative to untreated control cells” value (human Factor 11 mRNA [1]; 2.34 nM) was 17% and the “percent inhibition of human Factor 11 mRNA relative to untreated control cells” value (human Factor 11 mRNA [1]; 4.69 nM) was 26%. For the same substance, the “percent inhibition of human Factor 11 mRNA relative to untreated control cells” value (human Factor 11 mRNA [1]; 9.375 nM) was 49%, the “percent inhibition of human Factor 11 mRNA relative to untreated control cells” value (human Factor 11 mRNA [1]; 18.75 nM) was 61% and the “percent inhibition of human Factor 11 mRNA relative to untreated control cells” value (human Factor 11 mRNA [1]; 37.5 nM) was 81%. The “percent inhibition of human Factor 11 mRNA relative to untreated control cells” value (human Factor 11 mRNA [1]; 75 nM) was 84%, the “Half-life in the liver and kidney” value [2] was 11 days and the IC50 (human Factor 11 mRNA [3]) was 0.019 µM. For the same substance, the “percent inhibition of Factor 11 at 9.375 nM” value (human Factor 11 mRNA [3]) was 35%, the “percent inhibition of Factor 11 at 18.75 nM” value (human Factor 11 mRNA [3]) was 52% and the “percent inhibition of Factor 11 at 37.5 nM” value (human Factor 11 mRNA [3]) was 67%. The “percent inhibition of Factor 11 at 75 nM” value (human Factor 11 mRNA [3]) was 70%.
With “416864 (antisense GGCAGCGGACGGCATTGGTG; 5-10-5 gapmer, further chemistry not given here) [compound 416864]” the IC50 (human Factor 11 mRNA [1]) was 0.015 µM, the “percent inhibition of human Factor 11 mRNA relative to untreated control cells” value (human Factor 11 mRNA [1]; 2.34 nM) was 13% and the “percent inhibition of human Factor 11 mRNA relative to untreated control cells” value (human Factor 11 mRNA [1]; 4.69 nM) was 34%. For the same substance, the “percent inhibition of human Factor 11 mRNA relative to untreated control cells” value (human Factor 11 mRNA [1]; 9.375 nM) was 42%, the “percent inhibition of human Factor 11 mRNA relative to untreated control cells” value (human Factor 11 mRNA [1]; 18.75 nM) was 65% and the “percent inhibition of human Factor 11 mRNA relative to untreated control cells” value (human Factor 11 mRNA [1]; 37.5 nM) was 68%. For the same substance, the “percent inhibition of human Factor 11 mRNA relative to untreated control cells” value (human Factor 11 mRNA [1]; 75 nM) was 80%, the “Half-life in the liver and kidney” value [2] was 13 days and the IC50 (human Factor 11 mRNA [3]) was 0.026 µM. For the same substance, the “percent inhibition of Factor 11 at 9.375 nM” value (human Factor 11 mRNA [3]) was 18%, the “percent inhibition of Factor 11 at 18.75 nM” value (human Factor 11 mRNA [3]) was 43% and the “percent inhibition of Factor 11 at 37.5 nM” value (human Factor 11 mRNA [3]) was 62%. For the same substance, the “percent inhibition of Factor 11 at 75 nM” value (human Factor 11 mRNA [3]) was 78%.
For “416892 (antisense GCCCTTCATGTCTAGGTCCA; 3-14-3 chimeric gapmer, further chemistry not given here) [compound 416892]”, the IC50 (human Factor 11 mRNA [1]) was 0.009 µM, the “percent inhibition of human Factor 11 mRNA relative to untreated control cells” value (human Factor 11 mRNA [1]; 2.34 nM) was 14% and the “percent inhibition of human Factor 11 mRNA relative to untreated control cells” value (human Factor 11 mRNA [1]; 4.69 nM) was 34%. The “percent inhibition of human Factor 11 mRNA relative to untreated control cells” value (human Factor 11 mRNA [1]; 9.375 nM) was 49%, the “percent inhibition of human Factor 11 mRNA relative to untreated control cells” value (human Factor 11 mRNA [1]; 18.75 nM) was 70% and the “percent inhibition of human Factor 11 mRNA relative to untreated control cells” value (human Factor 11 mRNA [1]; 37.5 nM) was 84%. For the same substance, the “percent inhibition of human Factor 11 mRNA relative to untreated control cells” value (human Factor 11 mRNA [1]; 75 nM) was 93%, the “Half-life in the liver and kidney” value [2] was 12 days and the IC50 (human Factor 11 mRNA [3]) was 0.023 µM. For the same substance, the “percent inhibition of Factor 11 at 9.375 nM” value (human Factor 11 mRNA [3]) was 16%, the “percent inhibition of Factor 11 at 18.75 nM” value (human Factor 11 mRNA [3]) was 50% and the “percent inhibition of Factor 11 at 37.5 nM” value (human Factor 11 mRNA [3]) was 70%. For the same substance, the “percent inhibition of Factor 11 at 75 nM” value (human Factor 11 mRNA [3]) was 85%.
With “417003 (antisense TGGTGCACAGTTTCTGGCAG; 2-13-5 gapmer chemistry, further chemistry not given here) [compound 417003]” the IC50 (human Factor 11 mRNA [1]) was 0.011 µM, the “percent inhibition of human Factor 11 mRNA relative to untreated control cells” value (human Factor 11 mRNA [1]; 2.34 nM) was 6% and the “percent inhibition of human Factor 11 mRNA relative to untreated control cells” value (human Factor 11 mRNA [1]; 4.69 nM) was 29%. The “percent inhibition of human Factor 11 mRNA relative to untreated control cells” value (human Factor 11 mRNA [1]; 9.375 nM) was 48%, the “percent inhibition of human Factor 11 mRNA relative to untreated control cells” value (human Factor 11 mRNA [1]; 18.75 nM) was 64% and the “percent inhibition of human Factor 11 mRNA relative to untreated control cells” value (human Factor 11 mRNA [1]; 37.5 nM) was 73%. For the same substance, the “percent inhibition of human Factor 11 mRNA relative to untreated control cells” value (human Factor 11 mRNA [1]; 75 nM) was 82%, the “Half-life in the liver and kidney” value [2] was 10 days and the IC50 (human Factor 11 mRNA [3]) was 0.033 µM. For the same substance, the “percent inhibition of Factor 11 at 9.375 nM” value (human Factor 11 mRNA [3]) was 26%, the “percent inhibition of Factor 11 at 18.75 nM” value (human Factor 11 mRNA [3]) was 44% and the “percent inhibition of Factor 11 at 37.5 nM” value (human Factor 11 mRNA [3]) was 60%. For the same substance, the “percent inhibition of Factor 11 at 75 nM” value (human Factor 11 mRNA [3]) was 56%.
For “416825 (antisense GCCCTTCATGTCTAGGTCCA; 5-10-5 gapmer, further chemistry not given here) [compound 416825]”, the IC50 (human Factor 11 mRNA [1]) was 0.013 µM, the “percent inhibition of human Factor 11 mRNA relative to untreated control cells” value (human Factor 11 mRNA [1]; 2.34 nM) was 4% and the “percent inhibition of human Factor 11 mRNA relative to untreated control cells” value (human Factor 11 mRNA [1]; 4.69 nM) was 22%. The “percent inhibition of human Factor 11 mRNA relative to untreated control cells” value (human Factor 11 mRNA [1]; 9.375 nM) was 39%, the “percent inhibition of human Factor 11 mRNA relative to untreated control cells” value (human Factor 11 mRNA [1]; 18.75 nM) was 57% and the “percent inhibition of human Factor 11 mRNA relative to untreated control cells” value (human Factor 11 mRNA [1]; 37.5 nM) was 79%. The “percent inhibition of human Factor 11 mRNA relative to untreated control cells” value (human Factor 11 mRNA [1]; 75 nM) was 89%, the “Half-life in the liver and kidney” value [2] was 16 days and the IC50 (human Factor 11 mRNA [3]) was 0.02 µM. For the same substance, the “percent inhibition of Factor 11 at 9.375 nM” value (human Factor 11 mRNA [3]) was 23%, the “percent inhibition of Factor 11 at 18.75 nM” value (human Factor 11 mRNA [3]) was 52% and the “percent inhibition of Factor 11 at 37.5 nM” value (human Factor 11 mRNA [3]) was 73%. For the same substance, the “percent inhibition of Factor 11 at 75 nM” value (human Factor 11 mRNA [3]) was 92%.
